Test results published in PubChem BioAssay AID248 (DTP/NCI, 2004).
Toxic doses and inconclusive results are not listed.

Tested on: L1210 leukemia ip in BDF1 mice, survival T/C
Assay: NCI In Vivo Anticancer Drug Screen. Data for tumor model L1210 Leukemia (intraperitoneal) in B6D2F1 (BDF1) mice
Details: endpoint: mean survival time, higher = longer survival
How it was run: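 Ratio derived from survival: compound-dosed mice over vehicle-dosed mice, all bearing a transplantable tumor.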

[1] = dose: 50.0 mg/kg/injection, schedule: Q01DX009 (ip), vehicle: Klucel (hydroxypropylcellulose) (HPC)
[2] = dose: 100.0 mg/kg/injection, schedule: Q01DX009 (ip), vehicle: Klucel (hydroxypropylcellulose) (HPC)
[3] = dose: 100.0 mg/kg/injection, schedule: Q04DX003 (ip), vehicle: saline
[4] = dose: 200.0 mg/kg/injection, schedule: Q04DX003 (ip), vehicle: saline
[5] = dose: 400.0 mg/kg/injection, schedule: Q04DX003 (ip), vehicle: saline
[6] = dose: 50.0 mg/kg/injection, schedule: Q01DX001 (ip), vehicle: saline
[7] = dose: 100.0 mg/kg/injection, schedule: Q01DX001 (ip), vehicle: saline
[8] = dose: 200.0 mg/kg/injection, schedule: Q01DX001 (ip), vehicle: saline
[9] = dose: 100.0 mg/kg/injection, schedule: Q01DX009 (ip), vehicle: saline with Tween-80
[10] = dose: 100.0 mg/kg/injection, schedule: Q04DX003 (ip), vehicle: saline with Tween-80
[11] = dose: 200.0 mg/kg/injection, schedule: Q01DX009 (ip), vehicle: saline with Tween-80
[12] = dose: 200.0 mg/kg/injection, schedule: Q04DX003 (ip), vehicle: saline with Tween-80
[13] = dose: 400.0 mg/kg/injection, schedule: Q01DX009 (ip), vehicle: saline with Tween-80
[14] = dose: 400.0 mg/kg/injection, schedule: Q04DX003 (ip), vehicle: saline with Tween-80
[15] = dose: 400.0 mg/kg/injection, schedule: Q01DX001 (ip), vehicle: saline
[16] = dose: 100.0 mg/kg/injection, schedule: Q04DX002 (ip), vehicle: saline with Tween-80
[17] = dose: 200.0 mg/kg/injection, schedule: Q04DX002 (ip), vehicle: saline with Tween-80
[18] = dose: 200.0 mg/kg/injection, schedule: Q01DX001 (ip), vehicle: carboxymethylcellulose (CMC)
[19] = dose: 100.0 mg/kg/injection, schedule: Q01DX001 (ip), vehicle: carboxymethylcellulose (CMC)
[20] = dose: 400.0 mg/kg/injection, schedule: Q01DX001 (ip), vehicle: carboxymethylcellulose (CMC)

## CSc1cccc(NC(=S)NC(=O)c2ccccc2)c1
dose: 25.0 mg/kg/injection, schedule: Q01DX009 (ip), vehicle: Klucel (hydroxypropylcellulose) (HPC)
  T/C: 96 % of control
[1]
  T/C: 94 % of control
[2]
  T/C: 91 % of control

## COc1cc(C(=O)NCCBr)cc(OC)c1OC
[3]
  T/C: 107 % of control
[4]
  T/C: 108 % of control
[5]
  T/C: 103 % of control

## O=C(O)C12C3(Cl)C4(Cl)C5(OCCO5)C5(Cl)C3(Cl)C1(Cl)C5(Cl)C42Cl (configuration not stated)
[6]
  T/C: 105 % of control
[7]
  T/C: 102 % of control
[8]
  T/C: 100 % of control

## COc1ccc(C(OCC2OC(n3nnc4c(=O)[nH]c(N)nc43)CC2OC(C)=O)(c2ccccc2)c2ccc(OC)cc2)cc1 (configuration not stated)
dose: 12.5 mg/kg/injection, schedule: Q01DX001 (ip), vehicle: Klucel (hydroxypropylcellulose) (HPC)
  T/C: 103 % of control
dose: 25.0 mg/kg/injection, schedule: Q01DX001 (ip), vehicle: Klucel (hydroxypropylcellulose) (HPC)
  T/C: 93 % of control
dose: 50.0 mg/kg/injection, schedule: Q01DX001 (ip), vehicle: Klucel (hydroxypropylcellulose) (HPC)
  T/C: 97 % of control
dose: 400.0 mg/kg/injection, schedule: Q01DX001 (ip), vehicle: Klucel (hydroxypropylcellulose) (HPC)
  T/C: 100 % of control

## C1=C(c2ccccc2)CCCCC1
[9]
  T/C: 87 % of control
[10]
  T/C: 95 % of control
[11]
  T/C: 96 % of control
[12]
  T/C: 100 % of control
[13]
  T/C: 99 % of control
[14]
  T/C: 98 % of control

## Cn1c2ccccc2c2nnc(NCCCCO)nc21
dose: 100.0 mg/kg/injection, schedule: Q04DX002 (ip), vehicle: saline
  T/C: 106 % of control
dose: 200.0 mg/kg/injection, schedule: Q04DX002 (ip), vehicle: saline
  T/C: 97 % of control
dose: 400.0 mg/kg/injection, schedule: Q04DX002 (ip), vehicle: saline
  T/C: 101 % of control

## Nc1cc(=O)[nH]c(S(=O)O)n1
[1]
  T/C: 100 % of control
[2]
  T/C: 98 % of control
dose: 200.0 mg/kg/injection, schedule: Q01DX009 (ip), vehicle: Klucel (hydroxypropylcellulose) (HPC)
  T/C: 98 % of control

## C=CC(=O)N(C)OC
[7]
  T/C: 101 % of control
[3]
  T/C: 100 % of control
[8]
  T/C: 96 % of control
[4]
  T/C: 104 % of control
[15]
  T/C: 112 % of control
[5]
  T/C: 98 % of control

## O=C(O)CCCCOc1ccccc1
dose: 75.0 mg/kg/injection, schedule: Q04DX003 (ip), vehicle: saline
  T/C: 97 % of control
dose: 150.0 mg/kg/injection, schedule: Q04DX003 (ip), vehicle: saline
  T/C: 103 % of control

## Cc1ccc(S(=O)(=O)Oc2cc(C)ccc2C)cc1
[9]
  T/C: 100 % of control
dose: 100.0 mg/kg/injection, schedule: Q04DX003 (ip), vehicle: Klucel (hydroxypropylcellulose) (HPC)
  T/C: 97 % of control
[11]
  T/C: 93 % of control
dose: 200.0 mg/kg/injection, schedule: Q04DX003 (ip), vehicle: Klucel (hydroxypropylcellulose) (HPC)
  T/C: 92 % of control
[13]
  T/C: 101 % of control
dose: 400.0 mg/kg/injection, schedule: Q04DX003 (ip), vehicle: Klucel (hydroxypropylcellulose) (HPC)
  T/C: 91 % of control

## Cn1cc(C2Cc3ccccc3NC3=C2C(=O)CC(C)(C)C3)c2ccccc21 (configuration not stated)
dose: 100.0 mg/kg/injection, schedule: Q01DX001 (ip), vehicle: other
  T/C: 103 % of control
dose: 200.0 mg/kg/injection, schedule: Q01DX001 (ip), vehicle: other
  T/C: 92 % of control
dose: 400.0 mg/kg/injection, schedule: Q01DX001 (ip), vehicle: other
  T/C: 86 % of control

## O=C(O)CCOc1ccc(Cl)cc1
[10]
  T/C: 106 % of control
[12]
  T/C: 103 % of control
[14]
  T/C: 95 % of control

## N#C/C(=C\C1CCCCC1Cl)C1CCC([N+](=O)[O-])CC1 (configuration not stated)
dose: 50.0 mg/kg/injection, schedule: Q04DX002 (ip), vehicle: saline with Tween-80
  T/C: 91 % of control
[16]
  T/C: 91 % of control
[17]
  T/C: 97 % of control

## Cc1cc(/C=N/Nc2ccc3cccc(O)c3n2)c(O)c2ncccc12
[18]
  T/C: 93 % of control

## Cc1ccnc(NS(=O)(=O)c2ccc(N)cc2)n1
[16]
  T/C: 93 % of control
[17]
  T/C: 101 % of control
dose: 400.0 mg/kg/injection, schedule: Q04DX002 (ip), vehicle: saline with Tween-80
  T/C: 93 % of control

## Nc1ccc(C(=O)OCCCCC2CCCC2N)cc1 (configuration not stated)
dose: 75.0 mg/kg/injection, schedule: Q01DX001 (ip), vehicle: saline
  T/C: 97 % of control
dose: 150.0 mg/kg/injection, schedule: Q01DX001 (ip), vehicle: saline
  T/C: 113 % of control

## NC(CC(=O)NCC(=O)O)C(=O)O (configuration not stated)
dose: 12.5 mg/kg/injection, schedule: Q04DX002 (ip), vehicle: Klucel (hydroxypropylcellulose) (HPC)
  T/C: 105 % of control
dose: 25.0 mg/kg/injection, schedule: Q04DX002 (ip), vehicle: Klucel (hydroxypropylcellulose) (HPC)
  T/C: 98 % of control
dose: 50.0 mg/kg/injection, schedule: Q04DX002 (ip), vehicle: Klucel (hydroxypropylcellulose) (HPC)
  T/C: 94 % of control

## CCS(=O)(=O)c1ccc(NC(=O)OC(C)(c2ccccc2)C2CCCCC2)cc1 (configuration not stated)
[19]
  T/C: 96 % of control
[18]
  T/C: 91 % of control
[20]
  T/C: 100 % of control

## Cc1[nH]ccc2c(C)c3nc4ccccc4c3cc12
dose: 2.5 mg/kg/injection, schedule: Q01DX Z (ip), vehicle: carboxymethylcellulose (CMC)
  T/C: 110 % of control
dose: 5.0 mg/kg/injection, schedule: Q01DX Z (ip), vehicle: carboxymethylcellulose (CMC)
  T/C: 114 % of control
dose: 29.0 mg/kg/injection, schedule: Q04DX003 (ip), vehicle: saline with Tween-80
  T/C: 122 % of control
dose: 40.0 mg/kg/injection, schedule: Q01DX Z (ip), vehicle: saline
  T/C: 151 % of control
[6]
  T/C: 98 % of control
dose: 75.0 mg/kg/injection, schedule: Q01DX Z (ip), vehicle: saline
  T/C: 110 % of control
[7]
  T/C: 112 % of control
dose: 100.0 mg/kg/injection, schedule: Q01DX Z (ip), vehicle: saline
  T/C: 92 % of control
[10]
  T/C: 165 % of control
dose: 150.0 mg/kg/injection, schedule: Q04DX003 (ip), vehicle: saline with Tween-80
  T/C: 153 % of control
[8]
  T/C: 110 % of control
[15]
  T/C: 122 % of control

## CC/C(=C(\CC)c1ccc(OCC(=O)OCCNCCCl)cc1)c1ccc(OCC(=O)OCCNCCCl)cc1
dose: 6.25 mg/kg/injection, schedule: Q04DX002 (ip), vehicle: saline
  T/C: 94 % of control
dose: 12.5 mg/kg/injection, schedule: Q04DX002 (ip), vehicle: saline
  T/C: 97 % of control
dose: 25.0 mg/kg/injection, schedule: Q04DX002 (ip), vehicle: saline
  T/C: 94 % of control

## CC(O)C(=O)N(O)c1ccccc1OCc1ccccc1 (configuration not stated)
dose: 75.0 mg/kg/injection, schedule: Q01DX001 (ip), vehicle: acetone
  T/C: 104 % of control
dose: 75.0 mg/kg/injection, schedule: Q04DX003 (ip), vehicle: acetone
  T/C: 102 % of control
dose: 150.0 mg/kg/injection, schedule: Q01DX001 (ip), vehicle: acetone
  T/C: 91 % of control
dose: 150.0 mg/kg/injection, schedule: Q04DX003 (ip), vehicle: acetone
  T/C: 98 % of control
dose: 300.0 mg/kg/injection, schedule: Q01DX001 (ip), vehicle: acetone
  T/C: 89 % of control
dose: 300.0 mg/kg/injection, schedule: Q04DX003 (ip), vehicle: acetone
  T/C: 96 % of control

## Cc1cccc(Cl)c1NC(=O)CS
[9]
  T/C: 104 % of control
[11]
  T/C: 101 % of control
[13]
  T/C: 106 % of control

## CC(=O)[O][Hg][c]1ccc(Cl)cc1
dose: 5.0 mg/kg/injection, schedule: Q01DX001 (ip), vehicle: saline
  T/C: 89 % of control
dose: 10.0 mg/kg/injection, schedule: Q01DX001 (ip), vehicle: saline
  T/C: 94 % of control
dose: 20.0 mg/kg/injection, schedule: Q01DX001 (ip), vehicle: saline
  T/C: 96 % of control
dose: 40.0 mg/kg/injection, schedule: Q01DX001 (ip), vehicle: saline
  T/C: 89 % of control
dose: 80.0 mg/kg/injection, schedule: Q01DX001 (ip), vehicle: saline
  T/C: 91 % of control

## Nc1c(Br)cc(Br)c2c1-c1ccccc1C2=O
[19]
  T/C: 98 % of control
[18]
  T/C: 104 % of control
[20]
  T/C: 102 % of control
